From patent US9255101B2 (BIOPROJECT, priority 2012, dated 2016)
Where a name gives a salt, the structure may show the parent alone.

How the values were obtained:
human H4 receptor [1] = molecular target: T1, human H4 receptor (Homo sapiens, UniProt Q9H3N8); experiment: biochemical
human H4 receptor [2] = molecular target: T1, human H4 receptor; experiment: biochemical; remark: listed apart in the source
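Wherever IC50 is given: membranes from SH-SY5Y cells with stable human H4 receptor expression, incubated with GDP 10 µM, radioactivity retained on filters counted by liquid scintillation.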
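Wherever Ki is given: radioligand displacement of a [3H]-labelled ligand from membranes of CHO cells stably expressing human H4 receptor, bound radioactivity counted on filters by liquid scintillation.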

T1 sequence (Q9H3N8 whole entry): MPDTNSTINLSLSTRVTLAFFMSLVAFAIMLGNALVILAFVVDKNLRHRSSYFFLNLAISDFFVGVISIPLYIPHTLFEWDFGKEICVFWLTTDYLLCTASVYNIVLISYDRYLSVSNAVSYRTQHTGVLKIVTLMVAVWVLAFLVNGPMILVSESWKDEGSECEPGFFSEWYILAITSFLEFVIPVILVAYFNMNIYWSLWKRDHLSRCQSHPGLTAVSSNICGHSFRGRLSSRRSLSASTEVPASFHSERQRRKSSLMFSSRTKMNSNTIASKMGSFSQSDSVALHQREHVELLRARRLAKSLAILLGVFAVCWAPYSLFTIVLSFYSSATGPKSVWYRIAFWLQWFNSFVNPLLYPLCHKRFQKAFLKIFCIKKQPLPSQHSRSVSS

Compound	Ki (human H4 receptor [1]) [nM]	IC50 (human H4 receptor [2]) [nM]
CN1CCC(OC2c3ccccc3CCn3cc(-c4ccc(C(=O)OC(C)(C)C)cc4)nc32)CC1 (stereo not shown) [Example 36, 4-[4-(1-methylpiperidin-4-yloxy)-9,10-dihydro-4H-3,10a-diaza-benzo[f]azulen-2-yl]-benzoic acid tert-butyl ester]	< 30	< 30
CN1CCC(OC2c3ccccc3CCn3cc(-c4ccc(C(F)F)cc4)nc32)CC1 (stereo not shown) [Example 69, 2-(4-difluoromethylphenyl)-4-(1-methylpiperidin-4-yloxy)-9,10-dihydro-4H-3,10a-diaza-benzo[f]azulene]	< 30	< 300
Cc1c(-c2ccc(Br)cc2)nc2n1CCc1ccccc1C2OC1CCN(C)CC1 (stereo not shown) [Example 122, 2-(4-bromophenyl)-1-methyl-4-(1-methylpiperidin-4-yloxy)-9,10-dihydro-4H-3,10a-diaza-benzo[f]azulene]	< 30	< 30
CN1CCC(OC2c3ccccc3CCn3cc(-c4ccc(C#N)cc4)nc32)CC1 (stereo not shown) [Example 37, 4-[4-(1-methylpiperidin-4-yloxy)-9,10-dihydro-4H-3,10a-diaza-benzo[f]azulen-2-yl]-benzonitrile]	< 30	< 30
C=C(C)Cc1cn2c(n1)C(OC1CCN(C)CC1)c1ccccc1CC2 (stereo not shown) [Example 70, 2-(2-methyl-allyl)-4-(1-methylpiperidin-4-yloxy)-9,10-dihydro-4H-3,10a-diaza-benzo[f]azulene oxalate]	< 300	< 300
CN1CCC(OC2c3ccccc3CCn3cc(SCCc4ccccc4)nc32)CC1 (stereo not shown) [Example 119, 4-(1-methylpiperidin-4-yloxy)-2-phenethylsulfanyl-9,10-dihydro-4H-3,10a-diaza-benzo[f]azulene]	< 30	< 30
Cc1c(-c2ccc(NC(=S)NC(C)C)cc2)nc2n1CCc1ccccc1C2OC1CCN(C)CC1 (stereo not shown) [Example 206, 1-isopropyl-3-{4-[1-methyl-4-(1-methylpiperidin-4-yloxy)-9,10-dihydro-4H-3,10a-diazabenzo[f]azulen-2-yl]-phenyl}-thiourea]	< 30	< 30
CCSc1ccc(-c2cn3c(n2)C(OC2CCN(C)CC2)c2ccccc2CC3)cc1 (stereo not shown) [Example 46, 2-(4-ethylsulfanylphenyl)-4-(1-methylpiperidin-4-yloxy)-9,10-dihydro-4H-3,10a-diaza-benzo[f]azulene oxalate]	< 30	< 30
CN1CCC(OC2c3ccccc3CCn3cc(CCCCCc4ccccc4)nc32)CC1 (stereo not shown) [Example 90, 4-(1-methylpiperidin-4-yloxy)-2-(5-phenylpentyl)-9,10-dihydro-4H-3,10a-diaza-benzo[f]azulene oxalate]	< 30	< 30
CN1CCC(OC2c3cccc(Br)c3CCn3cc(I)nc32)CC1 (stereo not shown) [Example 79, 8-bromo-2-iodo-4-(1-methylpiperidin-4-yloxy)-9,10-dihydro-4H-3,10a-diaza-benzo[f]azulene]	< 300	< 1000
Cc1c(-c2ccc(N3CCN(C(C)(C)C)C3=O)cc2)nc2n1CCc1ccccc1C2OC1CCN(C)CC1 (stereo not shown) [Example 140, 1-tert-butyl-3-{4-[1-methyl-4-(1-methylpiperidin-4-yloxy)-9,10-dihydro-4H-3,10a-diaza-benzo[f]azulen-2-yl]-phenyl}-imidazolidin-2-one]	< 30	< 300
CN1CCC(OC2c3ccccc3CCn3cc(-c4ccc(F)cc4)nc32)CC1 (stereo not shown) [Example 56, 2-(4-fluorophenyl)-4-(1-methylpiperidin-4-yloxy)-9,10-dihydro-4H-3,10a-diaza-benzo[f]azulene]	< 30	< 30
CCCCCCc1ccc(-c2cn3c(n2)C(OC2CCN(C)CC2)c2ccccc2CC3)cc1 (stereo not shown) [Example 43, 2-(4-hexylphenyl)-4-(1-methylpiperidin-4-yloxy)-9,10-dihydro-4H-3,10a-diaza-benzo[f]azulene]	< 300	< 300
CN1CCC(OC2c3ccccc3CCn3cc(-c4ccc5c(c4)OCO5)nc32)CC1 (stereo not shown) [Example 50, 2-benzo[1,3]dioxol-5-yl-4-(1-methylpiperidin-4-yloxy)-9,10-dihydro-4H-3,10a-diaza-benzo[f]azulene]	< 30	< 1000
CN1CCC(OC2c3ccccc3CCn3cc(CCCC4CCCC4)nc32)CC1 (stereo not shown) [Example 105, 2-(3-cyclopentylpropyl)-4-(1-methylpiperidin-4-yloxy)-9,10-dihydro-4H-3,10a-diaza-benzo[f]azulene]	< 30	< 30
Cc1c(-c2ccc(NC(=O)OC(C)(C)C)cc2)nc2n1CCc1ccccc1C2OC1CCN(C)CC1 (stereo not shown) [Example 130, {4-[1-methyl-4-(1-methylpiperidin-4-yloxy)-9,10-dihydro-4H-3,10a-diaza-benzo[f]azulen-2-yl]-phenyl}-carbamic acid tert-butyl ester]	< 30	< 30

Compound	Ki (human H4 receptor [1]) [nM]	IC50 (human H4 receptor [2]) [nM]
Cc1cccc(-c2cn3c(n2)C(OC2CCN(C)CC2)c2ccccc2CC3)c1 (stereo not shown) [Example 6, 4-(1-methyl-piperidin-4-yloxy)-2-m-tolyl-9,10-dihydro-4H-3,10a-diaza-benzo[f]azulene]	< 300	< 300
Cc1c(-c2ccc(SCc3ccccc3)cc2)nc2n1CCc1ccccc1C2OC1CCN(C)CC1 (stereo not shown) [Example 164, 2-(4-benzylsulfanylphenyl)-1-methyl-4-(1-methylpiperidin-4-yloxy)-9,10-dihydro-4H-3,10a-diaza-benzo[f]azulene oxalate]	< 30	< 30
CC(=O)NCCSc1ccc(-c2nc3n(c2C)CCc2ccccc2C3OC2CCN(C)CC2)cc1 (stereo not shown) [Example 163, N-(2-{4-[1-methyl-4-(1-methylpiperidin-4-yloxy)-9,10-dihydro-4H-3,10a-diaza-benzo[f]azulen-2-yl]-phenylsulfanyl}-ethyl)-acetamide oxalate]	< 30	< 30
CN1CCC(OC2c3ccccc3CCn3cc(-c4ccc(NC(=O)OC(C)(C)C)cc4)nc32)CC1 (stereo not shown) [Example 49, {4-[4-(1-methylpiperidin-4-yloxy)-9,10-dihydro-4H-3,10a-diaza-benzo[f]azulen-2-yl]-phenyl}-carbamic acid tert-butyl ester]	< 30	< 300
Cc1ccc(-c2cn3c(n2)C(OC2CCN(C)CC2)c2ccccc2CC3)c(F)c1 (stereo not shown) [Example 82, 2-(2-fluoro-4-methylphenyl)-4-(1-methylpiperidin-4-yloxy)-9,10-dihydro-4H-3,10a-diaza-benzo[f]azulene]	< 300	< 30
CN1CCC(OC2c3ccccc3CCn3cc(SCc4cccs4)nc32)CC1 (stereo not shown) [Example 88, 4-(1-methylpiperidin-4-yloxy)-2-(thiophen-2-ylmethylsulfanyl)-9,10-dihydro-4H-3,10a-diaza-benzo[f]azulene oxalate]	< 300	< 1000
Cc1c(-c2ccc(SC(C)(C)CCO)cc2)nc2n1CCc1ccccc1C2OC1CCN(C)CC1 (stereo not shown) [Example 152, 3-methyl-3-{4-[1-methyl-4-(1-methylpiperidin-4-yloxy)-9,10-dihydro-4H-3,10a-diaza-benzo[f]azulen-2-yl]-phenylsulfanyl}-butan-1-ol]	< 30	< 30
CN1CCC(OC2c3ccccc3CCn3cc(-c4ccc(CN5CCCCCC5=O)cc4)nc32)CC1 (stereo not shown) [Example 188, 1-{4-[4-(1-methylpiperidin-4-yloxy)-9,10-dihydro-4H-3,10a-diaza-benzo[f]azulen-2-yl]benzyl}-azepan-2-one]	< 300	< 300
Cc1c(-c2ccccc2)nc2n1CCc1ccccc1C2OC1CCN(C)CC1 (single isomer, unassigned) [Example 135B, 1-methyl-4-(1-methyl-piperidin-4-yloxy)-2-phenyl-9,10-dihydro-4H-3,10a-diaza-benzo[f]azulene]	< 30	< 30
CSc1ccc(-c2cn3c(n2)C(OC2CCN(C)CC2)c2ccccc2CC3)cc1 (stereo not shown) [Example 20, 4-(1-methylpiperidin-4-yloxy)-2-(4-methylsulfanylphenyl)-9,10-dihydro-4H-3,10a-diaza-benzo[f]azulene]	< 30	< 30
CCCCCc1ccc(-c2cn3c(n2)C(OC2CCN(C)CC2)c2ccccc2CC3)cc1 (stereo not shown) [Example 42, 4-(1-methylpiperidin-4-yloxy)-2-(4-pentylphenyl)-9,10-dihydro-4H-3,10a-diaza-benzo[f]azulene]	< 30	< 30
CN1CCC(OC2c3ccccc3CCn3cc(CCCCc4ccccc4)nc32)CC1 (stereo not shown) [Example 129, 4-(1-methylpiperidin-4-yloxy)-2-(4-phenylbutyl)-9,10-dihydro-4H-3,10a-diaza-benzo[f]azulene oxalate]	< 30	< 30
Cc1c(-c2ccc(SCCN)cc2)nc2n1CCc1ccccc1C2OC1CCN(C)CC1 (stereo not shown) [Example 161, 2-{4-[1-methyl-4-(1-methylpiperidin-4-yloxy)-9,10-dihydro-4H-3,10a-diaza-benzo[f]azulen-2-yl]-phenylsulfanyl}-ethylamine oxalate]	< 30	< 30
CN1CCC(OC2c3ccccc3CCn3cc(CCc4ccccc4)nc32)CC1 (stereo not shown) [Example 38, 4-(1-methylpiperidin-4-yloxy)-2-phenethyl-9,10-dihydro-4H-3,10a-diaza-benzo[f]azulene oxalate]	< 300	< 30
CN1CCC(OC2c3ccccc3CCn3cc(-c4ccc(OC(F)(F)F)cc4)nc32)CC1 (stereo not shown) [Example 15, 4-(1-methylpiperidin-4-yloxy)-2-(4-trifluoromethoxyphenyl)-9,10-dihydro-4H-3,10a-diaza-benzo[f]azulene oxalate]	< 30	< 30
CN1CCC(OC2c3ccccc3CCn3cc(C#CCNC(=O)OC(C)(C)C)nc32)CC1 (stereo not shown) [Example 72, {3-[4-(1-methylpiperidin-4-yloxy)-9,10-dihydro-4H-3,10a-diaza-benzo[f]azulen-2-yl]-prop-2-ynyl}-carbamic acid tert-butyl ester]	< 30	< 30
